From patent US10947242B2, “[1,2,4]triazolo[1,5and#8208;A]pyrimidine compounds as PDE2 inhibitors” (Janssen Pharmaceutica NV, priority 2016, dated 2021)
Read-outs that look alike come from different tables or passages of the source.

Legend:
Assay type in all cases: biochemical
[1] = biological target: T1, Human recombinant PDE10A (hPDE10A) (Homo sapiens, UniProt Q9Y233); assay: In vitro assay PDE10A, human clone (SPA, 3H-cAMP hydrolysis)
T1 construct: His tag (inferred from metal chelate purification); made in house; host or cells: Sf9 insect cells (baculovirus)
T1 sequence (Q9Y233 267-1055): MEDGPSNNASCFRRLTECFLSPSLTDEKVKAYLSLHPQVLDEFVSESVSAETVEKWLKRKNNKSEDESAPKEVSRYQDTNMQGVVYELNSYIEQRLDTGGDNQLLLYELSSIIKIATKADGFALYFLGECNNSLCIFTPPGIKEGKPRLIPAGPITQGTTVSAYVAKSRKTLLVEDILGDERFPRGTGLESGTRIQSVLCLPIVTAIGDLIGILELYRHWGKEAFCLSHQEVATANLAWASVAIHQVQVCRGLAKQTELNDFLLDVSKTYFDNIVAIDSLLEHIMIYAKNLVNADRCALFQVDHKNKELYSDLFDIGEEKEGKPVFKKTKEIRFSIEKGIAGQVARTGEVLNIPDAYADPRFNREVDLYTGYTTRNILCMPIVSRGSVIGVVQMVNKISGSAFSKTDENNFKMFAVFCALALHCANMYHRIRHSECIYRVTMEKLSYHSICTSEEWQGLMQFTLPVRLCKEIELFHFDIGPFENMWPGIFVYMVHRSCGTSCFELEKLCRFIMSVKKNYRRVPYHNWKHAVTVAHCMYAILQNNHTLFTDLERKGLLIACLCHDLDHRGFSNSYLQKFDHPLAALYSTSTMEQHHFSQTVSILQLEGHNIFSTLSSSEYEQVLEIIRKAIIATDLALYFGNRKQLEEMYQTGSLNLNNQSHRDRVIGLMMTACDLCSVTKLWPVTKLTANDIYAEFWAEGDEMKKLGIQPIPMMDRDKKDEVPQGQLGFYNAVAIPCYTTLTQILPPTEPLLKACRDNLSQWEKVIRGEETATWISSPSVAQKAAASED
Summary of the method: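 Human recombinant PDE10A was expressed in Sf9 cells via baculovirus and incubated with compound in 50 mM Tris pH 7.8, 8.3 mM MgCl2, 1.7 mM EGTA. Substrate was 60 nM cAMP plus 0.008 μCi 3H-cAMP for 60 min at room temperature, read by SPA scintillation counting. Controls used 1% DMSO, and blanks omitted enzyme.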

[2] = biological target: T2, Human recombinant PDE3A (hPDE3A) (Homo sapiens, UniProt Q14432); assay: In vitro assay PDE3A (SPA, 3H-cAMP hydrolysis); conditions: for IC50: hPDE3B pIC50, read-out: pIC50 (converted); for Emax: read-out: hPDE3B Emax, read-out: Emax;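 as to all read-outs here: the method names PDE3A and the table heading PDE3B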
T2 construct: purchased Scottish Biomedical; host or cells: Sf9 insect cells
T2 sequence (Q14432 whole entry): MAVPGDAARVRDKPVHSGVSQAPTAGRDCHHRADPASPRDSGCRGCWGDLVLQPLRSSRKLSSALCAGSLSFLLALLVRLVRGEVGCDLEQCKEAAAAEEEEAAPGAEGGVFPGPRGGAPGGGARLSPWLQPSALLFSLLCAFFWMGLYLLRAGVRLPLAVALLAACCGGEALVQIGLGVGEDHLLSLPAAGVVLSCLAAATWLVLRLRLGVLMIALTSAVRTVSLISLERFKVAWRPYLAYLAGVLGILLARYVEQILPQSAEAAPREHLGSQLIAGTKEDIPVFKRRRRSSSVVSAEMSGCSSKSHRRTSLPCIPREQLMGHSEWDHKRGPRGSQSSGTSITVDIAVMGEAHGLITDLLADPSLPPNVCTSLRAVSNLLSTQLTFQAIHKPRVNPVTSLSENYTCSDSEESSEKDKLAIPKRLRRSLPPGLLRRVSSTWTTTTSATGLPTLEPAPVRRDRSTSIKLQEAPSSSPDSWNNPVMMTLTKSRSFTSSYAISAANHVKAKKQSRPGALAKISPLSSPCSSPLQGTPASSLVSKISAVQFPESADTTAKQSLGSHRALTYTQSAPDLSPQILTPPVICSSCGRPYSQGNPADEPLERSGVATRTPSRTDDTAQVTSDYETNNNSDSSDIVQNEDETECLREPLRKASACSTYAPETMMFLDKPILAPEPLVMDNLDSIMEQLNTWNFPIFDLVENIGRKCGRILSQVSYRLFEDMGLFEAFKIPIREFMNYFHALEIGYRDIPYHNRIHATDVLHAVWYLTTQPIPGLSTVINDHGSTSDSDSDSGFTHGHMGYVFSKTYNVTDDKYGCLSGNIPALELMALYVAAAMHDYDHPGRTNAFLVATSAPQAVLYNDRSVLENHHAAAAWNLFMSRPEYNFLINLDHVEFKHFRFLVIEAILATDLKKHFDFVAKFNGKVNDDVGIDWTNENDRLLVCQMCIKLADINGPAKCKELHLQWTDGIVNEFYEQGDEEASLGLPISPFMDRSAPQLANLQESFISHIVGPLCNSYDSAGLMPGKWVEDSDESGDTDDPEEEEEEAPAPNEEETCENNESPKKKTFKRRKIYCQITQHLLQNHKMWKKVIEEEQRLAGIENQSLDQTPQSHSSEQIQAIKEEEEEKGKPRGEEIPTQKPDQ
Summary of the method: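 Human PDE3A, cloned from brain, as partially purified Sf9 lysate. Substrate 0.4 μM cAMP plus [3H]-cAMP (2.4 μCi/ml final) in 50 mM Tris pH 7.8, 8.3 mM MgCl2, 1.7 mM EGTA, 60 min at room temperature, 1% DMSO final. Hydrolysis read by SPA scintillation counting against no-enzyme blanks and DMSO controls.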

[3] = biological target: T3, Human recombinant PDE2A (hPDE2A) (Homo sapiens, UniProt O00408); assay: In vitro assay PDE2A (SPA, 3H-cGMP hydrolysis); conditions: for Emax: read-out: hPDE2A Emax
T3 construct: His tag (inferred from metal chelate purification); made in house; host or cells: Sf9 insect cells (baculovirus)
T3 sequence (O00408 whole entry): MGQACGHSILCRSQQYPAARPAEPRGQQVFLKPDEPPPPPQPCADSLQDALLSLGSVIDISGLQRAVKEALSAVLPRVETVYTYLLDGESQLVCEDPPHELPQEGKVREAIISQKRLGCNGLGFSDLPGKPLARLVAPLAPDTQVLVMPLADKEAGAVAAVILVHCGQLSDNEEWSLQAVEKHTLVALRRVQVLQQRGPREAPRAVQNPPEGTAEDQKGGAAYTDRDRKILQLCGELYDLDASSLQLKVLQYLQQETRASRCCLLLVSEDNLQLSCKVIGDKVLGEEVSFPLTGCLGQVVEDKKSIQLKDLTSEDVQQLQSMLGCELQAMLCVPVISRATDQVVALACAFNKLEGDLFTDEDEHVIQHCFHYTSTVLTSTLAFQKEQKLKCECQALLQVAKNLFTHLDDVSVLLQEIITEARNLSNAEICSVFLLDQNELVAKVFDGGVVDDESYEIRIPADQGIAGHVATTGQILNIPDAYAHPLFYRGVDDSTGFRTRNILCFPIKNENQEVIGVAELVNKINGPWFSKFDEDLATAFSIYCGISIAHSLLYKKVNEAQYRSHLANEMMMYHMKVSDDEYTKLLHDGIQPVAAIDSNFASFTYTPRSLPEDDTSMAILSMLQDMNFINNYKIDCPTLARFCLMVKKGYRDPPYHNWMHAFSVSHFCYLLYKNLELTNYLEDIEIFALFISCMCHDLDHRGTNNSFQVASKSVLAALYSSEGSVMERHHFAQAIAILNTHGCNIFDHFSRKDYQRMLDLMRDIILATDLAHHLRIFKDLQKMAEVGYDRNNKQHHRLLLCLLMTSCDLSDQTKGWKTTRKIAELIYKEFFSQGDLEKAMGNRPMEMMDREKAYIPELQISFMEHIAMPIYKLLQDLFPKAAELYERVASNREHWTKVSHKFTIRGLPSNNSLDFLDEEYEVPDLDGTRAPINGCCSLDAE

[4] = human clone (h), default, read-out: hPDE10A2 Emax
[5] = human clone (h), default, read-out: hPDE10A2 pIC50 (converted)
[6] = human recombinant PDE2A, 10 μM cGMP substrate, read-out: hPDE2A pIC50 (converted)
[7] = read-out: hPDE2A pIC50 (converted)
[8] = human clone by default (no (r) mark), read-out: hPDE10A2 or rPDE10A2 Emax
[9] = human clone by default (no (r) mark), read-out: hPDE10A2 or rPDE10A2 pIC50 (converted)
[10] = hPDE2A pIC50, human recombinant PDE2A, 10 μM cGMP substrate

| SMILES | Emax [1, 4] [%] | IC50 [1, 5] [nM] | IC50 [2] [nM] | Emax [2] [%] | IC50 [3, 6] [nM] | Emax ([3]; human recombinant PDE2A) [%] | Emax [3] [%] | IC50 [3, 7] [nM] | Emax [1, 8] [%] | IC50 [1, 9] [nM] | IC50 ([3]; hPDE2A pIC50) [nM] | IC50 [3, 10] [nM] |
| --- | --- | --- | --- | --- | --- | --- | --- | --- | --- | --- | --- | --- |
| C[C@@H]1CCN(C(=O)c2cccc3ncoc23)C[C@H]1c1cc(C(F)F)nc2ncnn12 [Compound 176] | 88 | 891 | 8710 | 56 | 9.12 | 100 | 100 | 9.12 |  |  |  |  |
| C[C@@H]1CCN(C(=O)c2cnn(C)c2)C[C@H]1c1cc(C(F)F)nc2ncnn12 [Compound 177] | 93 | 457 | > 10000 | 21 | 9.55 | 99 | 99 | 9.55 |  |  |  |  |
| C[C@@H]1CCN(C(=O)c2cccc3c2ncn3C)C[C@H]1c1cc(C(F)F)nc2ncnn12 [Compound 178] | 92 | 794 | 7410 | 62 | 13.5 | 101 | 101 | 13.5 |  |  |  |  |
| C[C@@H]1CCN(C(=O)c2cnc3n2CCCC3)C[C@H]1c1cc(C(F)F)nc2ncnn12 [Compound 179] | 90 | 537 | > 10000 | 32 | 21.4 | 100 | 100 | 21.4 |  |  |  |  |
| C[C@@H]1CCN(C(=O)c2cnc(Br)s2)C[C@H]1c1cc(C(F)F)nc2ncnn12 [Compound 182] | 95 | 417 | > 10000 | 44 | 25.1 | 100 | 100 | 25.1 |  |  |  |  |
| C[C@@H]1CCN(C(=O)c2cccc3ocnc23)C[C@H]1c1cc(C(F)F)nc2ncnn12 [Compound 183] | 79 | 2290 | > 10000 | 36 | 26.3 | 99 | 99 | 26.3 |  |  |  |  |
| COc1nc(C)c(C(=O)N2CC[C@@H](C)[C@H](c3cc(C(F)F)nc4ncnn34)C2)s1 [Compound 185] | 87 | 1200 | 3310 | 79 |  |  | 98 | 21.9 |  |  |  |  |
| Cc1cc([C@H]2CN(C(=O)c3ccc4nccn4c3)CC[C@@H]2C)n2ncnc2n1 [Compound 216] | 67 | 4470 | > 10000 | 26 | 437 | 98 | 98 | 437 | 67 | 4470 |  |  |
| Cc1cc([C@H]2CN(C(=O)c3cc(C)c(F)c(C)c3)CC[C@@H]2C)n2ncnc2n1 [Compound 217] | 72 | 4790 | > 10000 | 37 |  |  | 99 |  | 72 | 4790 | 562 | 562 |
| Cc1cc([C@H]2CN(C(=O)c3cc(C)c(Cl)c(C)c3)CC[C@@H]2C)n2ncnc2n1 [Compound 218] | 85 | 2240 | > 10000 | 51 |  |  | 100 |  | 85 | 2240 | 204 | 204 |
| C[C@@H]1CCN(C(=O)c2ccc(C3CC3)c(C3CC3)c2)C[C@H]1c1cc(C(F)F)nc2ncnn12 [Compound 226] | 100 | 81.3 | 129 | 100 | 0.871 | 100 | 100 | 0.871 | 100 | 81.3 |  |  |
| Cc1cc([C@@H]2CC[C@@H]3CC[C@H]2N3C(=O)c2ccc3ncsc3c2)n2ncnc2n1 [Compound 230] | 65 | 5370 | > 10000 | 40 | 1020 | 93 | 93 | 1020 | 65 | 5370 |  |  |
| C[C@@H]1CCN(C(=O)c2ccc(C#N)cn2)C[C@H]1c1cc(C(F)F)nc2ncnn12 [Compound 234] | 59 | 8710 | > 10000 | 22 | 513 | 96 | 96 | 513 | 59 | 8710 |  |  |
| C[C@@H]1CCN(C(=O)c2ccncc2Cl)C[C@H]1c1cc(C(F)F)nc2ncnn12 [Compound 235] | 67 | 5500 | > 10000 | 32 | 123 | 98 | 98 | 123 | 67 | 5500 |  |  |
| C[C@@H]1CCN(C(=O)c2ncc(C#N)cc2Cl)C[C@H]1c1cc(C(F)F)nc2ncnn12 [Compound 238] | 48 |  | > 10000 | 35 | 380 | 94 | 94 | 380 | 48 |  |  |  |
| C[C@@H]1CCN(C(=O)c2ccncc2C(F)(F)F)C[C@H]1c1cc(C(F)F)nc2ncnn12 [Compound 239] | 43 | > 10000 | > 10000 | 16 | 191 | 96 | 96 | 191 | 43 | > 10000 |  |  |
| C[C@@H]1CCN(C(=O)c2ncc[nH]2)C[C@H]1c1cc(C(F)F)nc2ncnn12 [Compound 240] | 51 | 9120 | > 10000 | 9 | 1550 | 90 | 90 | 1550 | 51 | 9120 |  |  |

The next lines start with results.

| Emax [1, 4] [%] | IC50 [1, 5] [nM] | IC50 [2] [nM] | Emax [2] [%] | IC50 [3, 6] [nM] | Emax ([3]; human recombinant PDE2A) [%] | Emax [3] [%] | IC50 [3, 7] [nM] | Emax [1, 8] [%] | IC50 [1, 9] [nM] | SMILES | IC50 ([3]; hPDE2A pIC50) [nM] | IC50 [3, 10] [nM] |
| --- | --- | --- | --- | --- | --- | --- | --- | --- | --- | --- | --- | --- |
| 97 | 174 | 5130 | 66 | 5.01 | 100 | 100 | 5.01 |  |  | C[C@@H]1CCN(C(=O)c2ccc(Cl)s2)C[C@H]1c1cc(C(F)F)nc2ncnn12 [Compound 180] |  |  |
| 94 | 309 | > 10000 | 52 | 4.57 | 98 | 98 | 4.57 |  |  | C[C@@H]1CCN(C(=O)c2ccc(N)nc2)C[C@H]1c1cc(C(F)F)nc2ncnn12 [Compound 181] |  |  |
| 91 | 417 | > 10000 | 35 | 5.62 | 98 | 98 | 5.62 |  |  | Cc1nn(C)cc1C(=O)N1CC[C@@H](C)[C@H](c2cc(C(F)F)nc3ncnn23)C1 [Compound 198] |  |  |
| 59 | 6760 | > 10000 | 13 | 282 | 98 | 98 | 282 | 59 | 6760 | Cc1ccc(F)c(C(=O)N2CC[C@@H](C)[C@@H](c3cc(C(F)F)nc4ncnn34)C2)n1 [Compound 222] |  |  |
| 33 | > 10000 | > 10000 | 18 | 562 | 95 | 95 | 562 | 33 | > 10000 | Cc1cccnc1C(=O)N1CC[C@@H](C)[C@H](c2cc(C(F)F)nc3ncnn23)C1 [Compound 229] |  |  |
| 48 | > 10000 | > 10000 | 31 | 214 | 99 | 99 | 214 | 48 | > 10000 | Cc1cnc(C(=O)N2CC[C@@H](C)[C@H](c3cc(C(F)F)nc4ncnn34)C2)cn1 [Compound 232] |  |  |
| 26 | > 10000 | > 10000 | 10 | 575 | 94 | 94 | 575 | 26 | > 10000 | C[C@@H]1CCN(C(=O)c2ncccc2N)C[C@H]1c1cc(C(F)F)nc2ncnn12 [Compound 233] |  |  |
| 58 | 7760 | > 10000 | 18 | 209 | 100 | 100 | 209 | 58 | 7760 | C[C@@H]1CCN(C(=O)c2ccc(O)nn2)C[C@H]1c1cc(C(F)F)nc2ncnn12 [Compound 236] |  |  |
| 51 | 8130 | > 10000 | 20 | 186 | 97 | 97 | 186 | 51 | 8130 | C[C@@H]1CCN(C(=O)c2nccnc2Cl)C[C@H]1c1cc(C(F)F)nc2ncnn12 [Compound 237] |  |  |
